# Assay results as given in ChEMBL document CHEMBL1157865, “Synthesis and evaluation of SQ109 analogues as potential anti-tuberculosis candidates” (2010).
# System: Mycobacterium tuberculosis
# Assay: Antimycobacterial activity against Mycobacterium tuberculosis H37Rv ATCC 25618 by BACTEC 460 radiometric method
# Assay type: functional
compound,measurement,value
CC(C)CCCC(C)CCNCCNC12CC3CC(CC(C3)C1)C2 (stereo unspecified),MIC,0.5 µM
CC(C)CCCC(C)CCNCCNC1C2CC3CC(C2)CC1C3 (stereo unspecified),MIC,1 µM
CC(C)CCCC(C)CCCC(C)CCNCCNC1C2CC3CC(C2)CC1C3 (stereo unspecified),MIC,0.5 µM
CC(C)=CCC/C(C)=C/CC/C(C)=C/CNCCNC1C2CC3CC(C2)CC1C3 (stereo unspecified),MIC,0.25 µM
CC(C)=CCC/C(C)=C\CNCCNC12CC3CC(CC(C3)C1)C2,MIC,1 µM
CC(C)=CCC/C(C)=C/CNCCNC1C2CC3CC(C2)CC1C3 (stereo unspecified) [SQ109],MIC,0.5 µM
